Experimental data from PubChem BioAssay (NCI).
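Protocol summary: plate cells (96-well), add compound at 5 concentrations, incubate 48 h, interpolate endpoints linearly. Here, GI50 denotes the concentration required for 50% inhibition of growth. TGI: concentration producing complete growth inhibition.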

How the values were obtained:
Test in all cases: DTP human tumour cell line panel, 48 h
[1] = test system: SW-620 colon
[2] = test system: UO-31 renal
[3] = test system: LOX IMVI melanoma
[4] = test system: SF-539 CNS
[5] = test system: CAKI-1 renal
[6] = test system: SNB-75 CNS
[7] = test system: MALME-3M melanoma
[8] = test system: SK-MEL-5 melanoma
[9] = test system: NCI-H522 lung
[10] = test system: SF-295 CNS

Structure (SMILES) | GI50 [1] | TGI [1] | GI50 [2] | TGI [2] | GI50 [3] | TGI [3] | GI50 [4] | TGI [4] | GI50 [5] | TGI [5] | GI50 [6] | TGI [6] | GI50 [7] | TGI [7] | GI50 [8] | TGI [8] | GI50 [9] | TGI [9] | TGI [10] | GI50 [10]
Oc1cc(Cl)ccc1Oc1ccc(Cl)cc1Cl | 3.51 µM | 12.7 µM | 2.76 µM | 12 µM | 1.87 µM | 3.86 µM | 2.58 µM | 7.74 µM | 4.84 µM | 17.8 µM | 2.31 µM | 8.71 µM | 2.37 µM | 6.83 µM | 1.75 µM | 3.59 µM | 2.36 µM | 6.05 µM | – | –
N/N=C(\Cc1ccccc1)NN=C(N)N | – | > 100 µM | – | > 100 µM | – | > 100 µM | – | > 100 µM | – | > 100 µM | – | > 100 µM | – | > 100 µM | – | > 100 µM | – | > 100 µM | > 100 µM | –
COC(=O)[C@@H]1CCCN1C(=O)[C@@H]1CCCN1C(=O)[C@@H](Cc1c[nH]c2ccccc12)NC(=S)Nc1cc(C(F)(F)F)cc(C(F)(F)F)c1 | 4.34 µM | > 100 µM | 5.44 µM | > 100 µM | 1.89 µM | 4.38 µM | 7.72 µM | 67.4 µM | 16.9 µM | > 100 µM | 1.91 µM | > 100 µM | 5.17 µM | 24.7 µM | 2.13 µM | 5.52 µM | 3.98 µM | 26.5 µM | > 100 µM | 6.48 µM
O=C(Nc1cc(Cl)c(Cl)cc1Cl)C(=O)C(C(=O)c1ccc(Cl)c(Cl)c1)C1OC(=O)c2ccccc21 (stereo not given) | – | 38.3 µM | – | 30.6 µM | – | 35 µM | – | 7.89 µM | – | 46.3 µM | – | – | – | – | – | – | – | 23.3 µM | 36.6 µM | –
Cc1cccc(C)c1NC(=O)CCCC(=O)C1CCC/C1=N\NC(=O)C(=O)NN (stereo not given) | – | > 100 µM | – | > 100 µM | – | > 100 µM | – | > 100 µM | – | > 100 µM | – | > 100 µM | – | > 100 µM | – | > 100 µM | – | – | > 100 µM | –
CCC1CN2CCc3cc(OC)c(OC)cc3C2CC1CC1c2cc(OC)c(OC)cc2CCN1C(=O)CNC(=O)OC(C)(C)C (stereo not given) | – | 29.1 µM | – | 68.3 µM | – | 73.6 µM | – | – | – | 65.1 µM | – | 73.1 µM | – | 39.6 µM | – | 21 µM | – | – | 34.4 µM | –
S=c1ssc(Sc2ccccn2)c1Cl | – | – | 6.51 µM | > 100 µM | 5.09 µM | 17 µM | 16 µM | 32.1 µM | 17.6 µM | 31.4 µM | 23.3 µM | 56.8 µM | – | – | 3.74 µM | 15.3 µM | 6.99 µM | 21.9 µM | 34.5 µM | 16.5 µM
CC(=O)NC(CCCN(Cc1ccccc1)C(=O)N(CCCl)N=O)C(=O)NCc1ccccc1 (stereo not given) | – | > 100 µM | – | > 100 µM | – | > 57.1 µM | – | 20.6 µM | – | – | – | 63.9 µM | – | > 75.6 µM | – | > 76.7 µM | – | > 80.6 µM | > 100 µM | –
CCOC(=O)N1C2C=C(C)C(C3C(C)C(=O)N31)N(C(=O)c1ccccc1)O2 (stereo not given) | – | > 100 µM | – | > 100 µM | – | > 100 µM | – | > 100 µM | – | > 100 µM | – | > 100 µM | – | > 100 µM | – | > 100 µM | – | – | > 100 µM | –
FC(F)(F)c1ccc2nc(Nc3ccc(Cl)c(Cl)c3)c(-c3ccccc3)nc2c1 | – | > 100 µM | – | > 100 µM | – | > 100 µM | – | > 100 µM | – | – | – | – | – | > 100 µM | – | – | – | – | > 100 µM | –
COc1ccc2c(C(=O)O)cc3cc(OC)c(OC)cc3c2c1 | – | > 100 µM | – | > 100 µM | – | > 100 µM | – | > 100 µM | – | – | – | > 100 µM | – | > 100 µM | – | > 100 µM | – | > 100 µM | > 100 µM | –
FC(F)(F)C12C34C=CC5(CCC6(C=CC1(CC3)O6)C52C(F)(F)F)O4 (stereo not given) | – | > 100 µM | – | – | – | > 100 µM | – | > 100 µM | – | > 100 µM | – | – | – | > 100 µM | – | – | – | > 100 µM | > 100 µM | –
Cc1cn2c(/C=N/N/C(N)=N\N)c(-c3ccc(Cl)c([N+](=O)[O-])c3)nc2s1 | – | – | 9.45 µM | 22.5 µM | – | – | 0.993 µM | 1.83 µM | 8.49 µM | 17.6 µM | – | – | – | – | 4.29 µM | 16.4 µM | 4.58 µM | 32.1 µM | 1.8 µM | 0.891 µM
COc1cnc2c(c1)C(=O)c1c-2n(CCCN2CCCC2)c(=O)c2cc(Cl)ccc12 | 0.0313 µM | 8.09 µM | 0.599 µM | 9.02 µM | 0.0423 µM | 5.96 µM | – | – | 0.034 µM | 8.18 µM | 0.347 µM | 7.79 µM | 5.9 µM | 15.3 µM | 2.54 µM | 9.48 µM | 0.27 µM | 13.8 µM | 6.8 µM | 0.0278 µM
O=C1C(=O)N(C2C3CC4CC(C3)CC2C4)C(=O)C(=O)C1c1nc2ccccc2o1 (stereo not given) | – | > 100 µM | – | > 100 µM | – | > 100 µM | – | > 100 µM | – | > 100 µM | – | > 100 µM | – | > 100 µM | – | – | – | – | > 100 µM | –
CC(C)=CC(=O)CC(=O)C(=O)Nc1ccc(Cl)c(Cl)c1 | – | > 100 µM | – | > 100 µM | – | – | – | > 100 µM | – | – | – | > 100 µM | – | > 100 µM | – | – | – | > 100 µM | > 100 µM | –
CSc1nc(-c2ccccc2)c2c(n1)-c1ccccc1CC2 | – | > 100 µM | – | > 100 µM | – | > 100 µM | – | – | – | > 100 µM | – | > 100 µM | – | > 100 µM | – | > 100 µM | – | > 100 µM | > 100 µM | –
CN(C)c1ccc(C(N)=O)cn1 | – | > 100 µM | – | > 100 µM | – | > 100 µM | – | > 100 µM | – | – | – | > 100 µM | – | > 100 µM | – | > 100 µM | – | > 100 µM | > 100 µM | –
N#Cc1ccccc1NC(=O)c1ccccc1 | – | > 100 µM | – | – | – | > 100 µM | – | > 100 µM | – | > 100 µM | – | > 100 µM | – | > 100 µM | – | > 100 µM | – | – | > 100 µM | –
C=C(C)[C@@H]1CC[C@@]2(C)[C@H]1[C@H]1CCC3[C@@]4(C)CC[C@H](O)C(C)(C)[C@@H]4CC[C@@]3(C)[C@]1(C)C[C@@H]2O (stereo not given in full) | – | > 100 µM | – | – | – | > 100 µM | – | > 100 µM | – | > 100 µM | – | > 100 µM | – | > 100 µM | – | 57.2 µM | – | > 100 µM | 80.6 µM | –
COc1ccc(-c2ccc(/C=N/n3c(COc4ccc(Cl)cc4)n[nH]c3=S)o2)c([N+](=O)[O-])c1 | – | – | 33.5 µM | > 100 µM | – | – | 18.6 µM | 42.2 µM | 3.96 µM | 22.2 µM | 37.4 µM | > 100 µM | 14.1 µM | 37 µM | – | – | 25.7 µM | > 100 µM | – | –
